According to patent US20190144912A1, “METHODS FOR IDENTIFYING NOVEL ANTIBIOTICS AND RELATED COMPOSITIONS” (priority 2015, published 2019):

Columns and labels:
E. coli Lsp [1] = biological target: T1, E. coli Lsp (Escherichia coli, UniProt P00804, D131G/R160K); experiment: biochemical; design: The full length E. coli Lsp clone was generated using colony PCR of E. coli K12; His-tag (pET19b leader); made in house; host or cells: E. coli BL21(DE3)pLysS
Experimental: Utilizing the purified and solubilized Lsp enzyme, we developed an in vitro high-throughput functional screening for the integral membrane protease Lsp. First, screening of the Maybridge HitFinder library (Thermo Fisher) was conducted in black polystyrene 384-well low volume plates (Greiner #788076) using a BioRAPTR reagent dispenser (Beckman Coulter). Purified Lsp was diluted to 500 nM in assay buffer (PBS, 5% glycerol, 0.5% DDM pH 7.4) and 10 µL of this stock was added into each well. Next, 100 nL of a 2 mM stock of library compounds were pinned into each well and plates were centrifuged briefly. Following incubation at room temperature for 30 minutes, 2.5 μL of 250 μM Lsp FRET substrate in 25% dimethyl sulfoxide (DMSO), 75% assay buffer was added to each well. The plates were spun down and incubated for 30 minutes at room temperature. The assay was quenched with 2.5 μL of a solution containing 500 mM zinc chloride in water, giving a final concentration of 83 mM. The concentration of Lsp, FRET substrate, and library compounds during the activity assay were 400 nM, 50 μM, and 16 μM, respectively.
Catalytic signal was defined as the full enzyme activity pinning DMSO only, and background signal was measured by adding substrate to assay buffer containing no Lsp.
We tested several fixed concentrations of BBS-20 against varying concentrations of Lsp FRET substrate to determine a mechanism of inhibition (FIG. 8).

Lsp = Lsp (Escherichia coli, UniProt P00804); conditions: cited from earlier work
E. coli Lsp [2] = biological target: T1, E. coli Lsp; conditions: resynthesized compound
Experimental: Next, 50 nL of stock TSRI FL library compounds were pinned into each well to a final concentration of 8.4 μM and plates were centrifuged briefly. […] Fluorescence was measured on an EnVision pate reader (ex. 355 nm; em. 495 nm).
The 344 compounds were subjected to a dose-dependent titration assay with 10-point dose-response titrations (3-fold dilutions) in triplicate. LSP primary and pre-quench titration assays employed the same reagents, protocols, and detection systems as the secondary assays. […] Globomycin was included in the both titration assays as a control. For each test compound, percent activity was plotted against compound concentration. A four parameter equation describing a sigmoidal dose-response curve was then fitted with adjustable baseline using Assay Explorer software (Symyx Technologies Inc.). The reported IC50 values were generated from fitted curves by solving for the X-intercept value at the 50% activity level of the Y-intercept value.

[3] = biological target: Lsp FRET peptide substrate Dabsyl-VTGC((R)-2,3-di(palmitoyloxy)-propyl)AKD(EDANS); experiment: cell-based or functional assay
[4] = biological target: T2, Lsp FRET peptide substrate Dabsyl-VTGC((R)-2,3-di(palmitoyloxy)-propyl)AKD(EDANS)
T2 chain: VTGCAKD

T1 sequence (P00804 other isoform, or with tags, fused parts or gaps D131G/R160K): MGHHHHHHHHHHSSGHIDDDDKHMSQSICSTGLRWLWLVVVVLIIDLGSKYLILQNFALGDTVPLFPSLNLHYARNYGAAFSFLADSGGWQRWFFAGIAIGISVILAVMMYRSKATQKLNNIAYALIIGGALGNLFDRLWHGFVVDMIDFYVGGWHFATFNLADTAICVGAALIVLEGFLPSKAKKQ

CCN(CC)CCc1cn(CC(=O)NC[C@]2(C)CCC[C@]3(C)c4ccc(C(C)C)cc4CC[C@@H]23)nn1 [BBS-20]
IC50 (E. coli Lsp [1]): 15 ± 4 µM
identified as Lsp inhibitor in Sharpless library screen (E. coli Lsp [1]; 16 μM compound, 400 nM Lsp, 50 μM FRET substrate, triplicate): inhibitors
mode of inhibition (E. coli Lsp [1]; fixed concentrations of compound against varying concentrations of Lsp FRET substrate): noncompetitive

CCCCCCC1OC(=O)CNC(=O)C(C(C)O)NC(=O)C(CO)NC(=O)C(C(C)CC)NC(=O)C(CC(C)C)N(C)C(=O)C1C (stereo not shown) [globomycin]
mode of inhibition (Lsp): noncompetitively

CCC(CC)c1nnc(NC(=O)c2cc(OC)c(OC)cc2[N+](=O)[O-])s1 [SR-01000270728-1]
EC50 (E. coli Lsp [2]): 2.2 µM

E. coli lipoprotein signal peptidase (Lsp), full length, N-terminal His-tag fusion, DDM-solubilized and purified (from UniProt P00804 1-164) (enzyme)
substrate inhibition (Michaelis-Menten kinetics of peptide hydrolysis, FRET) [3]: > 100 µM

B1: E. coli lipoprotein signal peptidase (Lsp), full length, N-terminal His-tag fusion, DDM-solubilized and purified (protein)
chain: MSQSICSTGLRWLWLVVVVLIIDLGSKYLILQNFALGDTVPLFPSLNLHYARNYGAAFSFLADSGGWQRWFFAGIAIGISVILAVMMYRSKATQKLNNIAYALIIGGALGNLFDRLWHGFVVDMIDFYVGDWHFATFNLADTAICVGAALIVLEGFLPSRAKKQ
KM (Michaelis-Menten kinetics of peptide hydrolysis, FRET) [4]: KM=5 µM
